In brackets after ≈: the same amount, converted by molar mass.
Legend:
[1] = Total AUC in rabbit at 0.5 mg/kg; type: ADME, organism-based, Oryctolagus cuniculus; set-up: dose 0.5 mg/kg, time AUCmax; conditions: in vivo
[2] = Volume of distribution at steady state in cynomolgus monkey at 2.03 mg/kg; type: ADME, organism-based, Macaca fascicularis; conditions: in vivo, read-out: Vdss
[3] = Clearance in rat at 0.5 mg/kg; type: ADME, organism-based; conditions: in vivo
[4] = Clearance in rabbit at 0.5 mg/kg; type: ADME, organism-based, Oryctolagus cuniculus; conditions: in vivo
[5] = Clearance in dog at 4.75 mg/kg; type: ADME, organism-based, Canis lupus familiaris; conditions: in vivo
[6] = Clearance in cynomolgus monkey at 2.03 mg/kg; type: ADME, organism-based, Macaca fascicularis; conditions: in vivo
[7] = Volume of distribution at steady state in rat at 0.5 mg/kg; type: ADME, organism-based; conditions: in vivo, read-out: Vdss
[8] = Volume of distribution at steady state in rabbit at 0.5 mg/kg; type: ADME, organism-based, Oryctolagus cuniculus; conditions: in vivo, read-out: Vdss
[9] = Volume of distribution at steady state in dog at 4.75 mg/kg; type: ADME, organism-based, Canis lupus familiaris; conditions: in vivo, read-out: Vdss
[10] = Total AUC in rat at 0.5 mg/kg; type: ADME, organism-based; set-up: dose 0.5 mg/kg, time AUCmax; conditions: in vivo
[11] = Total AUC in dog at 4.75 mg/kg; type: ADME, organism-based, Canis lupus familiaris; set-up: dose 4.75 mg/kg, time AUCmax; conditions: in vivo
[12] = Total AUC in cynomolgus monkey at 2.03 mg/kg; type: ADME, organism-based, Macaca fascicularis; set-up: dose 2.03 mg/kg, time AUCmax; conditions: in vivo
[13] = Half life in rat at 0.5 mg/kg; type: ADME, organism-based; conditions: in vivo
[14] = Half life in rabbit at 0.5 mg/kg; type: ADME, organism-based, Oryctolagus cuniculus; conditions: in vivo
[15] = Half life in dog at 4.75 mg/kg; type: ADME, organism-based, Canis lupus familiaris; conditions: in vivo
[16] = Half life in cynomolgus monkey at 2.03 mg/kg; type: ADME, organism-based, Macaca fascicularis; conditions: in vivo
[17] = Mean residence time in rat at 0.5 mg/kg; type: ADME, organism-based; conditions: in vivo
[18] = Mean residence time in rabbit at 0.5 mg/kg; type: ADME, organism-based, Oryctolagus cuniculus; conditions: in vivo
[19] = Mean residence time in cynomolgus monkey at 2.03 mg/kg; type: ADME, organism-based, Macaca fascicularis; conditions: in vivo
[20] = Half life in dog liver microsomes; type: ADME, Canis lupus familiaris, microsome
[21] = Lipophilicity, log D of the compound by HPLC method; type: physicochemical
[22] = Acid dissociation constant, pKa of the compound; type: physicochemical
[23] = Base dissociation constant, pKa of the compound; type: physicochemical
[24] = Aqueous solubility of the compound at pH 6.7; type: physicochemical; conditions: aqueous medium
[25] = Solubility of the compound in phosphate buffer at pH 7.4; type: physicochemical
[26] = Solubility of the compound in Tris buffer at pH 8; type: physicochemical
[27] = Aqueous solubility of the compound at pH 8.3; type: physicochemical; conditions: aqueous medium
[28] = Aqueous solubility of the compound at pH 8.5; type: physicochemical; conditions: aqueous medium
[29] = Chemical stability of the compound in phosphate buffer at pH 6.5 at 25 degC after 90 days by HPLC method; type: physicochemical; conditions: read-out: Stability
[30] = Chemical stability of the compound in phosphate buffer at pH 7.4 at 25 degC after 90 days by HPLC method; type: physicochemical; conditions: read-out: Stability
[31] = Chemical stability of the compound in Tris buffer at pH 8 at 25 degC after 90 days by HPLC method; type: physicochemical; conditions: read-out: Stability
[32] = Chemical stability of the compound in phosphate buffer at pH 6.5 at 37 degC after 90 days by HPLC method; type: physicochemical; conditions: read-out: Stability
[33] = Chemical stability of the compound in phosphate buffer at pH 7.4 at 37 degC after 90 days by HPLC method; type: physicochemical; conditions: read-out: Stability
[34] = Chemical stability of the compound in Tris buffer at pH 8 at 37 degC after 90 days by HPLC method; type: physicochemical; conditions: read-out: Stability
[35] = Chemical stability of the compound in phosphate buffer at pH 6.5 at 50 degC after 90 days by HPLC method; type: physicochemical; conditions: read-out: Stability
[36] = Chemical stability of the compound in phosphate buffer at pH 7.4 at 50 degC after 90 days by HPLC method; type: physicochemical; conditions: read-out: Stability
[37] = Chemical stability of the compound in Tris buffer at pH 8 at 50 degC after 90 days by HPLC method; type: physicochemical; conditions: read-out: Stability
in vivo [38] = conditions: rat, iv
in vivo [39] = conditions: rat, iv; remark: listed apart in the source
in vivo [40] = conditions: rat, iv; remark: listed apart in the source
in vivo [41] = conditions: rat, iv; remark: listed apart in the source
physchem = conditions: phosphate buffer, pH 6.5
in vitro [42] = conditions: human, liver microsomes
in vitro [43] = conditions: rat, liver microsomes

CN1CCN(c2cccc3c2CCN(C(=O)/C=C/c2c(-n4cnnn4)ccc(Cl)c2F)[C@@H]3C(=O)Nc2ccc(C(=O)O)cc2)C(=O)C1 [BMS-962212]
AUC [1]: 0.27 µM·h
Vd [2]: 1.16 L/kg
clearance [3]: 31 mL/min/kg
clearance [4]: 43 mL/min/kg
clearance [5]: 15 mL/min/kg
clearance [6]: 31 mL/min/kg
Vd [7]: 0.32 L/kg
Vd [8]: 0.71 L/kg
Vd [9]: 1.02 L/kg
AUC [10]: 0.441 µM·h
AUC [11]: 7.76 µM·h
AUC [12]: 1.59 µM·h
half-life [13]: 13.2 min
half-life [14]: 36 min
half-life [15]: 63 min
half-life [16]: 46.8 min
MRT [17]: < 60 min
MRT [18]: < 60 min
MRT [19]: < 60 min
half-life [20]: 120 min
logD [21]: 1.4
pKa [22]: 4.1
pKa [23]: 4.7
solubility [24]: 260 µg/mL (≈ 394 µM)
solubility [25]: 1500 µg/mL (≈ 2280 µM)
solubility [26]: 11000 µg/mL (≈ 16700 µM)
solubility [27]: > 25000 µg/mL
solubility [28]: > 100000 µg/mL
remaining at […] [29]: 99.9%
remaining at […] [30]: 100%
remaining at […] [31]: 99%
remaining at […] [32]: 99.8%
remaining at […] [33]: 99%
remaining at […] [34]: 99.7%
remaining at […] [35]: 95.4%
remaining at […] [36]: 94.6%
remaining at […] [37]: 94%
clearance (in vivo [38]): 16 mL/min/kg
Vd (in vivo [39]): 0.75 L/kg
AUC (in vivo [40]): 0.309 µM·h
half-life (in vivo [41]): 52.8 min
solubility at 24 h (physchem): 880 µg/mL (≈ 1340 µM)
half-life (in vitro [42]): 108 to 120 min
half-life (in vitro [43]): 59 min

— ChEMBL document CHEMBL4028883 (J Med Chem, 2017)
